In patent publication US8134015B2, “Compound inhibiting in vivo phosphorous transport and medicine containing the same” (Kyowa Hakko Kirin Co., Ltd., priority 2003, dated 2012) one finds IC50 data, which are given here for 33 molecules.

The target in this assay is T1, rat NaPi-2b (Rattus norvegicus, UniProt Q9JJ09).
T1 construct: expressed in transfected cells; host or cells: Xenopus oocytes injected with cRNA
T1 sequence (Q9JJ09 1-695): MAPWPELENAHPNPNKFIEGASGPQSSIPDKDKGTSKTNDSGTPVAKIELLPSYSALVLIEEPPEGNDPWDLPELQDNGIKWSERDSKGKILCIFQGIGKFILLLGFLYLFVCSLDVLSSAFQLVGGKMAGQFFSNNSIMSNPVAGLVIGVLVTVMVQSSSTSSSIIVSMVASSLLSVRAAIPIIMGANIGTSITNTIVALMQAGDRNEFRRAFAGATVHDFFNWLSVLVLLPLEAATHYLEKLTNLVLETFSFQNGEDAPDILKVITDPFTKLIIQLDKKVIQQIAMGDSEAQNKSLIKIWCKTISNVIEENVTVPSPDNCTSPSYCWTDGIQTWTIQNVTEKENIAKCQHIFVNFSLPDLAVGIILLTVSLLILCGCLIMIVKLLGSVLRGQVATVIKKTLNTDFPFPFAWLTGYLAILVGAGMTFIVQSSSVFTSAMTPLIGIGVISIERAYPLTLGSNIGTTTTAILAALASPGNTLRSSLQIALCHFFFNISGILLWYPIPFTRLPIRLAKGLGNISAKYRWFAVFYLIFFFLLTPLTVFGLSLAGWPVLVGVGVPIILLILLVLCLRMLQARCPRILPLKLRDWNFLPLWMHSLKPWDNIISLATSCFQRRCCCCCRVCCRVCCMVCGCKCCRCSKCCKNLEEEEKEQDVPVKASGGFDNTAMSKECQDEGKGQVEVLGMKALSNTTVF
In words: Sodium-dependent phosphate uptake of Xenopus oocytes which expressed NaPi-2b (32P). It counts as cell-based. Conditions: Xenopus oocytes expressing rat NaPi-2b, 32P radioactive phosphorus; read-out: IC50 (phosphate uptake inhibitory activity). The method in brief: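 Percent inhibition at 300 μM and 100 μM comes from the same inhibition curve of 32P uptake. Assay used oocytes expressing rat NaPi-2b after 2 days of culture.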

Usually IC50 stands for the concentration that gives 50% inhibition. Turning to `Cc1ccc(/C=N/NC(=O)c2ccccc2NC(=O)c2cccnc2)cc1C` [Compound 133, N-[2-(3,4-Dimethyl-benzylidene-hydrazinocarbonyl)-phenyl]-nicotinamide], the IC50 was found to be 0.88 µM. Consider `O=C(Nc1ccccc1C(=O)N/N=C/c1cccc(F)c1)c1ccncc1` [Compound 134, N-[2-(3-Fluoro-benzylidene-hydrazinocarbonyl)-phenyl]-isonicotinamide], for which the IC50 amounted to 7.82 µM.

Turning to `O=C(Nc1ccccc1C(=O)N/N=C/c1ccc(F)cc1)c1ccncc1` [Compound 135, N-[2-(4-Fluoro-benzylidene-hydrazinocarbonyl)-phenyl]-isonicotinamide], the IC50 came out at 3.74 µM. Turning to `Cc1cccc(/C=N/NC(=O)c2ccccc2NC(=O)c2ccncc2)c1` [Compound 136, N-[2-(3-Methyl-benzylidene-hydrazinocarbonyl)-phenyl]-isonicotinamide], the IC50 was found to be 4.52 µM. Take `Cc1ccc(/C=N/NC(=O)c2ccccc2NC(=O)c2ccncc2)cc1` [Compound 137, N-[2-(4-Methyl-benzylidene-hydrazinocarbonyl)-phenyl]-isonicotinamide]: the concentration for half-maximal inhibition (IC50) was found to be 3 µM. As for `Cc1ccc(/C=N/NC(=O)c2ccccc2NC(=O)c2ccncc2)cc1C` [Compound 138, N-[2-(3,4-Dimethyl-benzylidene-hydrazinocarbonyl)-phenyl]-isonicotinamide], the IC50 worked out at 4.47 µM. `COc1ccc(C(=O)Nc2ccc(OCCN(C)C)cc2C(=O)N/N=C/c2ccc(F)cc2)cc1OC` [Compound 139, N-[4-(2-Dimethylamino-ethoxy-)-2-(4-fluoro-benzylidene-hydrazinocarbonyl)-phenyl]-3,4-dimethoxy-benzamide]: the IC50 came to 55.5 µM. As for `CCN(CC)CCOc1ccc(NC(=O)c2ccc(OC)c(OC)c2)c(C(=O)N/N=C/c2ccc(F)cc2)c1` [Compound 140, N-[4-(2-Diethylamino-ethoxy)-2-(4-fluoro-benzylidene-hydrazinocarbonyl)-phenyl]-3,4-dimethoxy-benzamide], the IC50 came out at 74.2 µM.

For the molecule `COc1ccc(NC(=O)c2ccc(OC)c(OC)c2)c(C(=O)N/N=C/c2cccc(F)c2)c1` [Compound 141, N-[2-(3-Fluoro-benzylidene-hydrazinocarbonyl)-4-methoxy-phenyl]-3,4-dimethoxy-benzamide], the IC50 was 5.78 µM.

As for `COc1ccc(NC(=O)c2ccc(OC)c(OC)c2)c(C(=O)N/N=C/c2ccc(F)cc2)c1` [Compound 142, N-[2-(4-Fluoro-benzylidene-hydrazinocarbonyl)-4-methoxy-phenyl]-3,4-dimethoxy-benzamide], the IC50 was found to be 9.2 µM.

In the case of `COc1ccc(NC(=O)c2ccc(OC)c(OC)c2)c(C(=O)N/N=C/c2cccc(C)c2)c1` [Compound 143, 3,4-Dimethoxy-N-[4-methoxy-2-(3-methyl-benzylidene-hydrazinocarbonyl)-phenyl]-benzamide], the IC50 was 5.88 µM. Regarding `COc1ccc(NC(=O)c2ccc(OC)c(OC)c2)c(C(=O)N/N=C/c2ccc(C)cc2)c1` [Compound 144, 3,4-Dimethoxy-N-[4-methoxy-2-(4-methyl-benzylidene-hydrazinocarbonyl)-phenyl]-benzamide], the concentration for half-maximal inhibition (IC50) was found to be 5.02 µM. Take `COc1ccc(NC(=O)c2ccc(OC)c(OC)c2)c(C(=O)N/N=C/c2ccc(C)c(C)c2)c1` [Compound 145, N-[2-(3,4-Dimethyl-benzylidene-hydrazinocarbonyl)-4-methoxy-phenyl]-3,4-dimethoxy-benzamide]: the half-inhibitory concentration (IC50) came out at 3.82 µM. Take `COc1ccc(C(=O)Nc2ccc(C)cc2C(=O)N/N=C/c2cccc(F)c2)cc1OC` [Compound 146, N-[2-(3-Fluoro-benzylidene-hydrazinocarbonyl)-4-methyl-phenyl]-3,4-dimethoxy-benzamide]: the half-maximal inhibitory concentration (IC50) is 1.99 µM. For the molecule `COc1ccc(C(=O)Nc2ccc(C)cc2C(=O)N/N=C/c2ccc(F)cc2)cc1OC` [Compound 147, N-[2-(4-Fluoro-benzylidene-hydrazinocarbonyl)-4-methyl-phenyl]-3,4-dimethoxy-benzamide], the 50% inhibitory concentration (IC50) was determined as 7.68 µM. In the case of `COc1ccc(C(=O)Nc2ccc(C)cc2C(=O)N/N=C/c2cccc(C)c2)cc1OC` [Compound 148, 3,4-Dimethoxy-N-[4-methyl-2-(3-methyl-benzylidene-hydrazinocarbonyl)-phenyl]-benzamide], the 50% inhibitory concentration (IC50) stood at 15.6 µM. On to `COc1ccc(C(=O)Nc2ccc(C)cc2C(=O)N/N=C/c2ccc(C)cc2)cc1OC` [Compound 149, 3,4-Dimethoxy-N-[4-methyl-2-(4-methyl-benzylidene-hydrazinocarbonyl)-phenyl]-benzamide], for which the IC50 was found to be 5.51 µM. The value for `COc1ccc(C(=O)Nc2ccc(C)cc2C(=O)N/N=C/c2ccc(C)c(C)c2)cc1OC` [Compound 150, N-[2-(3,4-Dimethyl-benzylidene-hydrazinocarbonyl)-4-methyl-phenyl]-3,4-dimethoxy-benzamide] was 1.09 µM; that for `O=C(Nc1ccc(Br)cc1C(=O)N/N=C/c1cccc(F)c1)c1ccco1` [Compound 151, Furan-2-carboxylic acid [4-bromo-2-(3-fluoro-benzylidene-hydrazinocarbonyl)-phenyl]-amide] was 3.07 µM; that for `O=C(Nc1ccc(Br)cc1C(=O)N/N=C/c1ccc(F)cc1)c1ccco1` [Compound 152, Furan-2-carboxylic acid [4-bromo-2-(4-fluoro-benzylidene-hydrazinocarbonyl)-phenyl]-amide] was 1.48 µM. The value for `Cc1cccc(/C=N/NC(=O)c2cc(Br)ccc2NC(=O)c2ccco2)c1` [Compound 153, Furan-2-carboxylic acid [4-bromo-2-(3-methyl-benzylidene-hydrazinocarbonyl)-phenyl]-amide] was 3.5 µM; that for `Cc1ccc(/C=N/NC(=O)c2cc(Br)ccc2NC(=O)c2ccco2)cc1` [Compound 154, Furan-2-carboxylic acid [4-bromo-2-(4-methyl-benzylidene-hydrazinocarbonyl)-phenyl]-amide] was 2.37 µM.

In the case of `Cc1ccc(/C=N/NC(=O)c2cc(Br)ccc2NC(=O)c2ccco2)cc1C` [Compound 155, Furan-2-carboxylic acid [4-bromo-2-(3,4-dimethyl-benzylidene-hydrazinocarbonyl)-phenyl]-amide], the IC50 amounted to 0.32 µM. The figure for `O=C(Nc1ccc(Br)cc1C(=O)N/N=C/c1ccc(Cl)c(C(F)(F)F)c1)c1ccco1` [Compound 156, Furan-2-carboxylic acid [4-bromo-2-(4-chloro-3-trifluoromethyl-benzylidene-hydrazinocarbonyl)-phenyl]-amide] is 0.46 µM; for `O=C(Nc1ccc(Br)cc1C(=O)N/N=C/c1ccc(F)cc1)c1cccs1` [Compound 158, Thiophene-2-carboxylic acid [4-bromo-2-(4-fluoro-benzylidene-hydrazinocarbonyl)-phenyl]-amide] it is 3.28 µM. Consider `Cc1cccc(/C=N/NC(=O)c2cc(Br)ccc2NC(=O)c2cccs2)c1` [Compound 159, Thiophene-2-carboxylic acid [4-bromo-2-(3-methyl-benzylidene-hydrazinocarbonyl)-phenyl]-amide], for which the IC50 stood at 4.35 µM. Consider `Cc1ccc(/C=N/NC(=O)c2cc(Br)ccc2NC(=O)c2cccs2)cc1` [Compound 160, Thiophene-2-carboxylic acid [4-bromo-2-(4-methyl-benzylidene-hydrazinocarbonyl)-phenyl]-amide], for which the half-inhibitory concentration (IC50) turned out to be 0.93 µM.

`Cc1ccc(/C=N/NC(=O)c2cc(Br)ccc2NC(=O)c2cccs2)cc1C` [Compound 161, Thiophene-2-carboxylic acid [4-bromo-2-(3,4-dimethyl-benzylidene-hydrazinocarbonyl)-phenyl]-amide]: the IC50 stood at 0.96 µM.

`O=C(Nc1ccc(Br)cc1C(=O)N/N=C/c1ccc(Cl)c(C(F)(F)F)c1)c1cccs1` [Compound 162, Thiophene-2-carboxylic acid [4-bromo-2-(4-chloro-3-trifluoromethyl-benzylidene-hydrazinocarbonyl)-phenyl]-amide]: the IC50 worked out at 3.11 µM. In the case of `O=C(Nc1ccc(Br)cc1C(=O)N/N=C/c1cccc(F)c1)c1ccncc1` [Compound 166, N-[4-Bromo-2-(3-fluoro-benzylidene-hydrazinocarbonyl)-phenyl]-isonicotinamide], the IC50 is 27.9 µM. For `O=C(Nc1ccc(Br)cc1C(=O)N/N=C/c1ccc(F)cc1)c1ccncc1` [Compound 167, N-[4-Bromo-2-(4-fluoro-benzylidene-hydrazinocarbonyl)-phenyl]-isonicotinamide], the IC50 is 30.2 µM. `Cc1cccc(/C=N/NC(=O)c2cc(Br)ccc2NC(=O)c2ccncc2)c1` [Compound 168, N-[4-Bromo-2-(3-methyl-benzylidene-hydrazinocarbonyl)-phenyl]-isonicotinamide]: the half-inhibitory concentration (IC50) came to 4.84 µM. The figure for `Cc1ccc(/C=N/NC(=O)c2cc(Br)ccc2NC(=O)c2ccncc2)cc1` [Compound 169, N-[4-Bromo-2-(4-methyl-benzylidene-hydrazinocarbonyl)-phenyl]-isonicotinamide] is 4.24 µM.
